Measured values: US20120165304A1, “6,7,8,9-Tetrahydro-5H-1,4,7,10a-tetraaza-cyclohept[f]indene derivatives, pharmaceutical compositions containing these compounds, their use and processes for preparing them” (BOEHRINGER INGELHEIM INTERNATIONAL GMBH, priority 2008, published 2012)
pEC50: −log10 of the molar value.

Target: human 5-HT2C receptor (Homo sapiens, UniProt P28335, I156V/I160V/N158S)
Test: cell-based

human 5-HT2C receptor, sequence (P28335 33-458 I156V/N158S/I160V limits assumed): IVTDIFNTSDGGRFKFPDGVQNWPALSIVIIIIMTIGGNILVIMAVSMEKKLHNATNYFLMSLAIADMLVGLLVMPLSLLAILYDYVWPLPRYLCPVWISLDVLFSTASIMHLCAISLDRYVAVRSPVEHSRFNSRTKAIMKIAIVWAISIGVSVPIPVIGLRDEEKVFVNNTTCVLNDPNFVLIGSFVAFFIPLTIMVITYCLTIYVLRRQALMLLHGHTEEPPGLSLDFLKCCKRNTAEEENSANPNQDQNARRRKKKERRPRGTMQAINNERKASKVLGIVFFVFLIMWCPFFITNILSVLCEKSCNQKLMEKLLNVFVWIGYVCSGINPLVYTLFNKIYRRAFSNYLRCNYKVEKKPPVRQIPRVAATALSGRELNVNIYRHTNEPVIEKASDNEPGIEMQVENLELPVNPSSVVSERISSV

| Compound | pEC50 |
| --- | --- |
| O=C(C1CN(c2c3c(nc4ccnn24)CCNCC3)C1)N1CCC(CCc2ccccc2)C1 (stereo not drawn) [Example 31.99] | 7.19 |
| CC(C)C1CCN(C(=O)C2CN(c3c4c(nc5ccnn35)CCN(C)CC4)C2)CC1 [Example 36.20] | 7.20 |
| CC1(NC(=O)C2CN(c3c4c(nc5ccnn35)CCNCC4)C2)CCCC1 [Example 37.80] | 6.91 |
| O=C(C1CN(c2c3c(nc4ccnn24)CCNCC3)C1)N1CC[C@H](F)C1 [Example 31.202] | 6.79 |
| CN1CCCN(C(=O)C2CN(c3c4c(nc5ccnn35)CCNCC4)C2)CC1 [Example 37.10] | 8.70 |
| Clc1ccncc1OC1CN(c2c3c(nc4ccnn24)CCNCC3)C1 [Example 35.35] | 7.17 |
| CN1CCc2nc3ccnn3c(N3CC(C(=O)N4CCNC(=O)C4)C3)c2CC1 [Example 36.14] | 6.44 |
| CN1CCc2nc3ccnn3c(N3CC(C(=O)N4CCN(C5CCCC5)CC4)C3)c2CC1 [Example 36.13] | 6.94 |
| Cc1cnn2c(N3CC(C(=O)N4CCC5(CCCC5)C4)C3)c3c(nc12)CCNCC3 [Example 31.248] | 7.60 |
| CC(C)CN1CCN(C(=O)C2CN(c3c4c(nc5ccnn35)CCN(C)CC4)C2)CC1 [Example 36.17] | 7.06 |
| CN1CCN(C(=O)C2CN(c3c4c(nc5ccnn35)CCNCC4)C2)CC1 [Example 37.35] | 8.40 |
| CC1(C(=O)N2CCc3c(cccc3C(F)(F)F)C2)CN(c2c3c(nc4ccnn24)CCNCC3)C1 [Example 32.3] | 5.71 |
| NC1CCN(C(=O)C2CN(c3c4c(nc5ccnn35)CCNCC4)C2)C1 (stereo not drawn) [Example 37.16] | 8.30 |
| OC1CCCN(c2c3c(nc4ccnn24)CCNCC3)C1 (stereo not drawn) [Example 1.38] | 5.74 |
| O=C(C1CN(c2c3c(nc4ccnn24)CCNCC3)C1)N1CCCCC1c1cccnc1 (stereo not drawn) [Example 31.187] | 6.00 |
| CN(Cc1ccc(-c2ccccc2)cc1)C(=O)C1CN(c2c3c(nc4ccnn24)CCNCC3)C1 [Example 31.82] | 6.81 |
| O=C(C1CN(c2c3c(nc4ccnn24)CCNCC3)C1)N1CCCC(C2CCCCC2)C1 (stereo not drawn) [Example 31.70] | 6.76 |
| Cc1ccc(Cl)c(OC2CN(c3c4c(nc5ccnn35)CCNCC4)C2)c1 [Example 35.29] | 6.94 |
| CN(C(=O)C1CN(c2c3c(nc4ccnn24)CCNCC3)C1)c1ccccc1 [Example 31.5] | 6.13 |
| CO[C@@H]1CCN(C(=O)C2CN(c3c4c(nc5ccnn35)CCN(C)CC4)C2)C1 [Example 36.38] | 7.07 |
| O=C(C1CN(c2c3c(nc4ccnn24)CCNCC3)C1)N1CCC2(CCCCC2)C1 [Example 31.48] | 7.42 |
| CCN(Cc1ccccc1)C(=O)C1CN(c2c3c(nc4ccnn24)CCNCC3)C1 [Example 31.23] | 6.46 |
| O=C(C1CN(c2c3c(nc4ccnn24)CCNCC3)C1)N1CCN(c2ccc(F)cc2)CC1 [Example 37.8] | 8.10 |
| c1nn2c(N3CCC3)c3c(nc2c1C1CC1)CCNCC3 [Example 29, 10-Azetidin-1-yl-3-cyclopropyl-6,7,8,9-tetrahydro-5H-1,4,7,10a-tetraaza-cyclohepta[f]indene] | 7.09 |
| Cc1cnn2c(N3CC(C(=O)N4CCC5(CCOC5)CC4)C3)c3c(nc12)CCNCC3 [Example 31.240] | 7.54 |
| Brc1ccccc1OC1CN(c2c3c(nc4ccnn24)CCNCC3)C1 [Example 35.7] | 7.17 |
| O=C(NC1(c2ccccc2)CC1)C1CN(c2c3c(nc4ccnn24)CCNCC3)C1 [Example 31.92] | 6.04 |
| N#CC1CN(c2c3c(nc4ccnn24)CCNCC3)C1 [Example 22, 1-(6,7,8,9-Tetrahydro-5H-1,4,7,10a-tetraaza-cyclohepta[f]inden-10-yl)-azetidine-3-carbonitrile] | 5.99 |
| Clc1ccc(OC2CN(c3c4c(nc5ccnn35)CCNCC4)C2)cc1 [Example 35, 10-[3-(4-Chloro-phenoxy)-azetidin-1-yl]-6,7,8,9-tetrahydro-5H-1,4,7,10a-tetraaza-cyclohepta[f]indene] | 6.85 |
| COc1ccc(C2(CNC(=O)C3CN(c4c5c(nc6ccnn46)CCNCC5)C3)CCCCC2)cc1 [Example 31.185] | 5.83 |
